Measured values taken from paper PMC3880318, “Green Tea and One of Its Constituents, Epigallocatechine-3-gallate, Are Potent Inhibitors of Human 11β-hydroxysteroid Dehydrogenase Type 1” (PLoS ONE, 2014).
“And” between values parts separate entries of the source, which are not always exact repeats. Identical values can stand only once. “Also recorded” adds a separate entry of the source. Like-named read-outs stand apart in the source and are kept apart here.

Experiments:
[1] = biological target: T1, human microsomal 11β-HSD1 (Homo sapiens, UniProt P28845); experiment: Inhibition of cortisone reduction (11β-HSD1 reductase activity) in human liver microsomes, cortisol quantified by HPLC; settings: for IC50: IC50, inhibition of cortisone reduction
Protocol: (§1) In terms of 11β-HSD1 reductase activity, inhibition analysis was performed as follows: 50 µl of tea extract were added to a mixture containing 400 µM cortisone, 0.8 mM NADPH solution in 100 mM phosphate buffer pH 7.4. […] The total assay volume was 250 µl.
(§2) The reaction was stopped by adding 250 µl ice-cold ethylacetate and vortexing, followed by a 30 sec centrifugation at 13,000 RPM in a microcentrifuge. The organic phase was separated and the aqueous phase extracted two more times with 250 µl ethylacetate. The ethylacetate phases were combined and the solvent was removed in a SpeedVac (ThermoSavant). The resulting residue was dissolved in 150 µl methanol-water (58∶42, v/v) and used for metabolite quantification by HPLC.
(§3) Product yield was quantified by peak integration of the cortisone and cortisol peaks, respectively.
(§4) The data obtained were plotted as substrate-velocity curves and analyzed by nonlinear-regression.

purified 11β-HSD1 [2] = biological target: T2, purified 11β-HSD1 (Homo sapiens, UniProt P28845); experiment: Inhibition of cortisone reduction by purified human 11β-HSD1; assay type: biochemical
T2 construct: from tissue; host or cells: human liver
Protocol: The total assay volume was 250 µl.

[3] = biological target: T3, 11β-HSD1 in human liver microsomes (Homo sapiens, UniProt P28845); experiment: Inhibition of cortisol oxidation (11β-HSD1 dehydrogenase activity) in human liver microsomes, HPLC; assay type: biochemical; settings: pH 9.0, NADP
T3 construct: The reaction was started by adding 5 µl of human liver microsomes (218 µg protein); from tissue; host or cells: human liver (microsomal fraction)
Protocol: Here, the incubation time was 60 min at 37°C in a 100 mM phosphate buffer pH 9.0.

[4] = biological target: T1, human microsomal 11β-HSD1; experiment: biochemical
Protocol: as §1, §2, §3, §4

purified 11β-HSD1 [5] = biological target: T2, purified 11β-HSD1; experiment: Western Blot analysis for EGCG-induced 11β-HSD1 aggregate formation; settings: preincubation 3 h at 37°C, up to 100 µM
Protocol: To exclude EGCG-induced 11β-HSD1 aggregate formation, purified 11β-HSD1 (2.14 µg) was preincubated with 25–100 µM EGCG (3 h at 37°C) and then prepared for sodium dodecyl sulfate polyacrylamide gel electrophoresis (SDS-PAGE) according to the manufacturer's protocol. As a control, the same volume of untreated purified protein was loaded onto the parallel lane.
The resolved proteins were transferred to nitrocellulose membranes. After blocking the membrane for 1 h at RT with 5% non-fat dry milkpowder in PBS-buffer, the blocking solution was replaced by the primary antibody at a 1∶2,000 dilution and the membrane was incubated at 4°C for about 16 h. Primary and secondary antibodies were diluted in PBS containing 2.5% non-fat dry milkpowder. The membrane was washed three times and then the corresponding secondary antibody was added at a dilution of 1∶10,000. After a 1.5 h incubation at RT the membrane was washed three times and the specific Western blot signals of 11β-HSD1 were detected by the ECL Western Blotting System according to the manufacturer's instructions.

[6] = read-out: inhibition of cortisone reduction

T1 sequence (P28845 whole entry): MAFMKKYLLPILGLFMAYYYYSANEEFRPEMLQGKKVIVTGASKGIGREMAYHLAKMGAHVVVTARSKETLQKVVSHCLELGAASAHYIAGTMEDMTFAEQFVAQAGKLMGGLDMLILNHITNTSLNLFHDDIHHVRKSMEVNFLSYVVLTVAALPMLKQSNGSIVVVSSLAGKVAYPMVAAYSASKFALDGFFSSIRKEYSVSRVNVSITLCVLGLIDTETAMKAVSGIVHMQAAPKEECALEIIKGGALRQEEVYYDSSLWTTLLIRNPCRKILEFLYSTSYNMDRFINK
T2 sequence (P28845 whole entry): as above
T3 sequence (P28845 whole entry): as above

Oc1cc(O)c2c(c1)O[C@H](c1cc(O)c(O)c(O)c1)[C@H](O)C2 [EGC, (−)-epigallocatechin]
inhibition at 200 µM [1, 6]: ~25%

O=C(O[C@@H]1Cc2c(O)cc(O)cc2O[C@@H]1c1cc(O)c(O)c(O)c1)c1cc(O)c(O)c(O)c1 [EGCG, (−)-epigallocatechin-3-gallate]
type of inhibition (purified 11β-HSD1 [2]; purified 11β-HSD1, with respect to cortisone): mixed inhibition; also recorded: mixed mode
Ki (purified 11β-HSD1 [2]; purified human 11β-HSD1, read-out: Ki (estimated by Dixon-plot) on cortisone reduction): 20.9 µM
Ki (purified 11β-HSD1 [2]; purified human 11β-HSD1, read-out: Ki (non-linear regression) on cortisone reduction): 18.7 µM
IC50 [3]: 131 µM
Ki [4]: 22.7 µM and 17.8 µM
protein aggregate formation (purified 11β-HSD1 [5]): did not induce protein aggregate formation
IC50 ([1]; human liver microsomes, freshly prepared solution): 58 µM
IC50 ([1]; stored solution, human liver microsomes, aqueous solution stored at −20°C for one week): 26.9 µM
type of inhibition ([1]; human liver microsomes, with respect to cortisone): mixed inhibition
inhibition at 100 µM [1, 6]: ~75%

Oc1cc(O)c2c(c1)O[C@@H](c1cc(O)c(O)c(O)c1)[C@H](O)C2 [GC, (−)-gallocatechin]
inhibition at 100 µM [1, 6]: ~53%

OO [hydrogen peroxide, reference compound]
influence on cortisol production (purified 11β-HSD1 [2]; up to 300 µM, purified human 11β-HSD1): No 11β-HSD1 inhibition
influence on cortisol production ([1]; up to 300 µM, human liver microsomes): No 11β-HSD1 inhibition
